From patent US10689365B2, “Substituted 2-alkylimidazolylcarboxamides as pesticides” (Bayer CropScience Aktiengesellschaft, priority 2016, dated 2020)
Where two headings read alike, the source gives them in different places.

Tests used:
Myzus persicae [1] = assay: Myzus persicae - oral test; assay type: in vivo; conditions: for pest or weed control at 20 ppm: Myzus persicae, po, 120 h, read-out: efficacy
Protocol: Solvent: 100 parts by weight of acetone
To produce a suitable preparation of active compound, 1 part by weight of active compound is dissolved using the specified parts by weight of solvent and made up with water until the desired concentration is attained.
50 μl of the active compound preparation are transferred into microtitre plates and made up to a final volume of 200 μl with 150 μl of IPL41 insect medium (33%+15% sugar). Subsequently, the plates are sealed with parafilm, which a mixed population of green peach aphids (Myzus persicae) within a second microtitre plate is able to puncture and imbibe the solution through it.
After 5 days, the efficacy in % is determined. 100% means that all the aphids have been killed; 0% means that no aphids have been killed.

Myzus persicae [2] = assay: Myzus persicae - spray test (Chinese cabbage leaf discs); assay type: in vivo; conditions: for pest or weed control at 500 g/ha: Myzus persicae, foliar, read-out: efficacy
Protocol: Myzus persicae—Spray Test
Solvent: 78 parts by weight of acetone • • 1.5 parts by weight of dimethylformamide
Emulsifier: alkylaryl polyglycol ether
To produce a suitable active compound preparation, 1 part by weight of active compound is dissolved using the stated parts by weight of solvent and made up with water containing an emulsifier concentration of 1000 ppm until the desired concentration is attained. To produce further test concentrations, the formulation is diluted with emulsifier-containing water.
Discs of Chinese cabbage leaves (Brassica pekinensis) infested by all stages of the green peach aphid (Myzus persicae) are sprayed with an active ingredient formulation of the desired concentration.
After 5-6 days, the efficacy in % is determined. 100% means that all the aphids have been killed; 0% means that no aphids have been killed.

[3] = log P by HPLC on reversed-phase (C18) columns, OECD Guideline 117; assay type: physicochemical; conditions: for chromatographic logP: reversed-phase (C18) HPLC column
Protocol: The log P values were determined in accordance with OECD Guideline 117 (EC Directive 92/69/EEC) by HPLC (high-performance liquid chromatography) using reversed-phase (RP) columns (C18), by the following methods:
[a] The LC-MS determination in the acidic range was carried out at pH 2.7 with 0.1% aqueous formic acid and acetonitrile (contains 0.1% formic acid) as mobile phases; linear gradient from 10% acetonitrile to 95% acetonitrile.
[b] LC-MS determination in the neutral range was carried out at pH 7.8 with 0.001 molar aqueous ammonium hydrogencarbonate solution and acetonitrile as mobile phases; linear gradient from 10% acetonitrile to 95% acetonitrile.

[4] = application rate 20 ppm, after 5 days
[5] = application rate 500 g/ha, after 5-6 days
[6] = neutral range, pH 7.8, aqueous ammonium hydrogencarbonate/acetonitrile
[7] = acidic range, pH 2.7, 0.1% aqueous formic acid/acetonitrile
[8] = acidic range, pH 2.7, 0.1% aqueous formic acid/acetonitrile, read-out: logP[a]
[9] = neutral range, pH 7.8, aqueous ammonium hydrogencarbonate/acetonitrile, read-out: logP[n]

| SMILES | efficacy (Myzus persicae [1]; [4]) [%] | efficacy (Myzus persicae [2]; [5]) [%] | logP[n] [3, 6] | logP[a] [3, 7] | further results |
| --- | --- | --- | --- | --- | --- |
| CC(O)c1ncc(C(=O)N(C)c2cccnc2)n1C (racemic) [Example I-1-9] | 100 | 100 | 0.45 | – | – |
| CC(C)C(O)c1ncc(C(=O)N(C)c2cccnc2)n1C (racemic) [Example I-1-11] | 100 | 90 | – | 0.18 | – |
| CN(C(=O)c1cnc(C(O)c2ccccc2Cl)n1C)c1cccnc1 (racemic) [Example I-1-13] | 100 | 100 | – | 0.85 | – |
| CN(C(=O)c1cnc(C(O)c2cccc(Cl)c2)n1C)c1cccnc1 (racemic) [Example I-1-14] | 100 | 90 | 1.56 | 1.01 | – |
| CN(C(=O)c1cnc(C(O)c2ccc(Cl)cc2)n1C)c1cccnc1 (racemic) [Example I-1-15] | 100 | 100 | 1.56 | 1.11 | – |
| CN(C(=O)c1cnc(C(O)c2ccc(Cl)c(Cl)c2)n1C)c1cccnc1 (racemic) [Example I-1-16] | 100 | 100 | 1.87 | 1.42 | – |
| CN(C(=O)c1cnc(C(O)c2ccccn2)n1C)c1cccnc1 (racemic) [Example I-1-17] | 100 | 100 | 0.71 | 0.02 | – |
| CN(C(=O)c1cnc(C(O)c2cccnc2)n1C)c1cccnc1 (racemic) [Example I-1-18] | 100 | 90 | 0.60 | – | – |
| CN(C(=O)c1cnc(C(O)c2ccncc2)n1C)c1cccnc1 (racemic) [Example I-1-19] | 100 | 90 | 0.54 | – | – |
| CN(C(=O)c1cnc(C(O)c2cnccc2Cl)n1C)c1cccnc1 (racemic) [Example I-1-20] | 100 | 90 | 1.07 | 0.59 | – |
| CN(C(=O)c1cnc(C(O)c2ncccn2)n1C)c1cccnc1 (racemic) [Example I-1-21] | 100 | 100 | 0.40 | – | – |
| CC(C)CC(O)c1ncc(C(=O)N(C)c2cccnc2)n1C (racemic) [Example I-1-60] | 100 | 90 | 1.26 | 0.60 | – |
| CC(C)CCC(O)c1ncc(C(=O)N(C)c2cccnc2)n1C (racemic) [Example I-1-61] | 100 | 90 | 1.53 | 0.92 | – |
| CN(C(=O)c1cnc(Cc2ccccc2)n1C)c1cccnc1 [Example I-1-3, 2-Benzyl-N,1-dimethyl-N-(pyridin-3-yl)-1H-imidazole-5-carboxamide] | – | – | – | – | pest or weed control at 20 ppm (Myzus persicae [1]; [4]): 90%; pest or weed control at 500 g/ha (Myzus persicae [2]; [5]): 100%; chromatographic logP [3, 8]: 0.64; chromatographic logP [3, 9]: 1.48 |
| CN(C(=O)c1cnc(Cc2ncccn2)n1C)c1cccnc1 [Example I-1-4] | 100 | 100 | 0.68 | – | – |
| CN(C(=O)c1cnc(CCc2ccccc2)n1C)c1cccnc1 [Example I-1-5, N,1-Dimethyl-2-(phenylethyl)-N-(pyridin-3-yl)-1H-imidazole-5-carboxamide] | – | – | – | – | pest or weed control at 20 ppm (Myzus persicae [1]; [4]): 100%; pest or weed control at 500 g/ha (Myzus persicae [2]; [5]): 100%; chromatographic logP [3, 8]: 0.66; chromatographic logP [3, 9]: 1.58 |
| C=Cc1ncc(C(=O)N(C)c2cccnc2)n1C [Example I-1-6, N,1-Dimethyl-N-(pyridin-3-yl)-2-vinyl-1H-imidazole-5-carboxamide] | – | – | – | – | pest or weed control at 20 ppm (Myzus persicae [1]; [4]): 100%; pest or weed control at 500 g/ha (Myzus persicae [2]; [5]): 100% |

| SMILES | efficacy (Myzus persicae [1]; [4]) [%] | efficacy (Myzus persicae [2]; [5]) [%] | logP[n] [3, 6] | logP[a] [3, 7] | further results |
| --- | --- | --- | --- | --- | --- |
| CN(C(=O)c1cnc(CO)n1C)c1cccnc1 [Example I-1-7, 2-(Hydroxymethyl)-N,1-dimethyl-N-(pyridin-3-yl)-1H-imidazole-5-carboxamide] | – | – | – | – | pest or weed control at 20 ppm (Myzus persicae [1]; [4]): 100%; pest or weed control at 500 g/ha (Myzus persicae [2]; [5]): 100%; chromatographic logP [3, 9]: 0.28 |
| CCN(C(=O)c1cnc(CO)n1C)c1cccnc1 [Example I-1-8] | 90 | – | 0.63 | −0.16 | – |
| CN(C(=O)c1cnc(C(C)(C)O)n1C)c1cccnc1 [Example I-1-10, 2-(2-Hydroxypropan-2-yl)-N,1-dimethyl-N-(pyridin-3-yl)-1H-imidazole-5-carboxamide] | – | – | – | – | pest or weed control at 20 ppm (Myzus persicae [1]): 70%; pest or weed control at 500 g/ha (Myzus persicae [2]): 90%; chromatographic logP [3, 9]: 0.57 |
| CN(C(=O)c1cnc(C(O)c2ccccc2)n1C)c1cccnc1 (stereo not drawn) [Example I-1-12, 2-[Hydroxy(phenyl)methyl]-N,1-dimethyl-N-(pyridin-3-yl)-1H-imidazole-5-carboxamide] | – | – | – | – | pest or weed control at 20 ppm (Myzus persicae [1]): 100%; pest or weed control at 500 g/ha (Myzus persicae [2]): 90%; chromatographic logP [3, 8]: 0.52; chromatographic logP [3, 9]: 1.23 |
| COCc1ncc(C(=O)N(C)c2cccnc2)n1C [Example I-1-22, 2-(Methoxymethyl)-N,1-dimethyl-N-(pyridin-3-yl)-1H-imidazole-5-carboxamide] | – | – | – | – | pest or weed control at 20 ppm (Myzus persicae [1]; [4]): 100%; pest or weed control at 500 g/ha (Myzus persicae [2]; [5]): 100%; chromatographic logP [3, 9]: 0.63 |
| CN(C(=O)c1cnc(COCC2CC2)n1C)c1cccnc1 [Example I-1-23] | 100 | 100 | 1.29 | 0.67 | – |
| CC(C)CS(=O)(=O)Cc1ncc(C(=O)N(C)c2ccc[n+]([O-])c2)n1C [Example I-1-55, 2-[(Isobutylsulphonyl)methyl]-N,1-dimethyl-N-(1-oxidopyridin-3-yl)-1H-imidazole-5-carboxamide] | – | – | – | – | chromatographic logP [3, 8]: 0.68; chromatographic logP [3, 9]: 0.77 |
| C=C(C)c1ncc(C(=O)N(C)c2cccnc2)n1C [Example I-1-57] | – | 90 | 1.05 | 0.10 | – |
| C/C=C/c1ncc(C(=O)N(C)c2cccnc2)n1C [Example I-1-58] | – | 90 | 1.08 | – | – |
| C/C=C\c1ncc(C(=O)N(C)c2cccnc2)n1C [Example I-1-59] | – | 90 | 1.11 | – | – |
| Cn1c(C(=O)N(c2cccnc2)C2CC2)cnc1CO [Example I-1-66] | 70 | – | 0.61 | – | – |
| CN(C(=O)c1cnc(C(OCC(F)(F)F)C(F)(F)F)n1C)c1cccnc1 (stereo not drawn) [Example I-1-67, N,1-Dimethyl-N-(pyridin-3-yl)-2-[2,2,2-trifluoro-1-(2,2,2-trifluoroethoxy)ethyl]-1H-imidazole-5-carboxamide] | – | – | – | – | pest or weed control at 500 g/ha (Myzus persicae [2]; [5]): 70%; chromatographic logP [3, 8]: 1.72; chromatographic logP [3, 9]: 1.86 |
| CN(C(=O)c1cnc(C(O)C(Cl)(Cl)Cl)n1C)c1cccnc1 (stereo not drawn) [Example I-1-68] | – | – | 1.21 | 1.02 | – |
| CN(C(=O)c1cnc(Cn2ncn(C3CC3)c2=O)n1C)c1cccnc1 [Example I-1-69] | – | 70 | 0.59 | 0.22 | – |
| CN(C(=O)c1cnc(Cn2ncn(C)c2=O)n1C)c1cccnc1 [Example I-1-70] | – | – | 0.37 | – | – |
| CN(C(=O)c1cnc(CCl)n1C)c1cccnc1 [III-1-1, 2-(Chloromethyl)-N,1-dimethyl-N-(pyridin-3-yl)-1H-imidazole-5-carboxamide] | – | – | – | – | chromatographic logP [3, 9]: 0.89 |
| CN(C(=O)c1cnc(C#Cc2ccccc2)n1C)c1cccnc1 [IV-1-1, N,1-Dimethyl-2-(phenylethinyl)-N-(pyridin-3-yl)-1H-imidazole-5-carboxamide] | – | – | – | – | chromatographic logP [3, 8]: 1.86; chromatographic logP [3, 9]: 1.98 |
